Test results from patent US12600714B2, “Substituted pyrazinecarboxamide compounds for treating diseases related to EGFR mutation” (WIGEN BIOMEDICINE TECHNOLOGY (SHANGHAI) CO., LTD., priority 2020, dated 2026).

Tested on: EGFR (del19/T790M/C797S)
Assay: HTRF inhibitory activity assay against EGFR (del19/T790M/C797S) enzyme
Assay type: biochemical
Description: Inhibitory Activity Assay of the Compounds Disclosed Herein Against EGFR (del19/T790M/C797S), EGFR (L858R/T790M/C797S) or EGFR (WT) Enzymes
The inhibitory effects of the compounds against EGFR (del19/T790M/C797S), EGFR (L858R/T790M/C797S) or EGFR (WT) enzyme activity was determined by using HTRF. The procedures are as follows:
The WT or mutant EGFR proteins were incubated with a serially diluted compounds at 28° C. for 10 min followed by addition of biotin-labeled general tyrosine kinase (TK) substrate and ATP. The mixture was incubated at room temperature for 40 min for reaction. After the termination of the reaction, an Eu3+-Cryptate-labeled antibody against TK and streptavidin-XL665 were added and the mixture was incubated at room temperature for 60 min. The luminescences at 615 nm and 665 nm were detected and the ratio of 665/615 was calculated to quantify the level of TK substrate phosphorylation. Inhibition % and IC50 of the compounds were calculated relative to the control group.

Row | Compound | EGFR (del19/T790M/C797S) inhibition (%) (0.3 nM compound)
1 | CN1CCN(C2CCN(c3ccc(Nc4nc(Oc5ccccc5)c(-c5ccccc5)nc4C(N)=O)cc3)CC2)CC1 [compound 6] | + (+ indicates an inhibition less than or equal to 20%)
2 | CN1CCC(Nc2nc(Nc3ccc(N4CCC(N5CCN(C)CC5)CC4)cc3)c(C(N)=O)nc2-c2ccccc2)CC1 [compound 7] | + (+ indicates an inhibition less than or equal to 20%)
3 | CN1CCN(C2CCN(c3ccc(Nc4nc(NC5CCCC5(C)O)c(-c5ccccc5)nc4C(N)=O)cc3)CC2)CC1 (stereo not shown) [compound 8] | + (+ indicates an inhibition less than or equal to 20%)
4 | CN1CCN(C2CCN(c3ccc(Nc4nc(NC5CCCC5)c(-c5ccccc5)nc4C(N)=O)cc3)CC2)CC1 [compound 9] | + (+ indicates an inhibition less than or equal to 20%)
5 | CN1CCN(C2CCN(c3ccc(Nc4nc(OC5CCOCC5)c(-c5ccccc5)nc4C(N)=O)cc3)CC2)CC1 [compound 12] | + (+ indicates an inhibition less than or equal to 20%)
6 | CN1CCN(C2CCN(c3ccc(Nc4nc(N5CCCCC5)c(-c5ccccc5)nc4C(N)=O)cc3)CC2)CC1 [compound 15] | + (+ indicates an inhibition less than or equal to 20%)
7 | CN1CCN(C2CCN(c3ccc(Nc4nc(O[C@@H]5CCOC5)c(-c5ccccc5)nc4C(N)=O)cc3)CC2)CC1 [compound 16] | + (+ indicates an inhibition less than or equal to 20%)
8 | CN1CCN(C2CCN(c3ccc(Nc4nc(N5CCCC5)c(-c5ccccc5)nc4C(N)=O)cc3)CC2)CC1 [compound 17] | + (+ indicates an inhibition less than or equal to 20%)
9 | CN1CCN(C2CCN(c3ccc(Nc4nc(O[C@H]5CCOC5)c(-c5ccccc5)nc4C(N)=O)cc3)CC2)CC1 [compound 18] | + (+ indicates an inhibition less than or equal to 20%)
10 | COc1nc(Nc2ccc(N3CCC(N4CCN(C)CC4)CC3)cc2)c(C(N)=O)nc1-c1ccccc1 [compound 19, 5-methoxy-3-((4-(4-(4-methylpiperazin-1-yl)piperidin-1-yl)phenyl)amino)-6-phenylpyrazine-2-carboxamide] | + (+ indicates an inhibition less than or equal to 20%)
11 | CN1CCN(C2CCN(c3ccc(Nc4nc(NCCC(C)(C)O)c(-c5ccccc5)nc4C(N)=O)cc3)CC2)CC1 [compound 22] | + (+ indicates an inhibition less than or equal to 20%)
12 | CN1CCN(C2CCN(c3ccc(Nc4nc(N[C@H]5CC[C@@H](O)CC5)c(-c5ccccc5)nc4C(N)=O)cc3)CC2)CC1 [compound 24] | ++ (++ indicates an inhibition from 20% to 50%)
13 | CN1CCN(C2CCN(c3ccc(Nc4nc(OCC(F)(F)F)c(-c5ccccc5)nc4C(N)=O)cc3)CC2)CC1 [compound 25] | + (+ indicates an inhibition less than or equal to 20%)
14 | CN1CCN(C2CCN(c3ccc(Nc4nc(NCCCS(C)(=O)=O)c(-c5ccccc5)nc4C(N)=O)cc3)CC2)CC1 [compound 27] | + (+ indicates an inhibition less than or equal to 20%)
15 | CN(C)CCNc1nc(Nc2ccc(N3CCC(N4CCN(C)CC4)CC3)cc2)c(C(N)=O)nc1-c1ccccc1 [compound 28] | + (+ indicates an inhibition less than or equal to 20%)
16 | CN1CCN(C2CCN(c3ccc(Nc4nc(N5CCC(O)C5)c(-c5ccccc5)nc4C(N)=O)cc3)CC2)CC1 (stereo not shown) [compound 29] | ++ (++ indicates an inhibition from 20% to 50%)
17 | CN1CCN(C2CCN(c3ccc(Nc4nc(NC5CCC5)c(-c5ccccc5)nc4C(N)=O)cc3)CC2)CC1 [compound 30] | ++ (++ indicates an inhibition from 20% to 50%)
18 | CN1CCN(c2ccc(Nc3nc(NC4CCOCC4)c(-c4ccccc4C(N)=O)nc3C(N)=O)cc2)CC1 [compound 36] | + (+ indicates an inhibition less than or equal to 20%)
19 | CN1CCN(C2CCN(c3ccc(Nc4nc(NC5CCOCC5)c(-c5cnn(C)c5)nc4C(N)=O)cc3)CC2)CC1 [compound 40] | + (+ indicates an inhibition less than or equal to 20%)
20 | COc1ccccc1-c1nc(C(N)=O)c(Nc2ccc(N3CCC(N4CCN(C)CC4)CC3)cc2)nc1NC1CCOCC1 [compound 42] | + (+ indicates an inhibition less than or equal to 20%)

Row | Compound | EGFR (del19/T790M/C797S) inhibition (%) (0.3 nM compound)
21 | CN1CCN(C2CCN(c3ccc(Nc4nc(NC5CCOCC5)c(-c5cccc(O)c5)nc4C(N)=O)cc3)CC2)CC1 [compound 43] | + (+ indicates an inhibition less than or equal to 20%)
22 | CN1CCN(C2CCN(c3ccc(Nc4nc(NC5CCOCC5)c(-c5cccc(S(C)(=O)=O)c5)nc4C(N)=O)cc3)CC2)CC1 [compound 44] | + (+ indicates an inhibition less than or equal to 20%)
23 | COc1ccc(-c2nc(C(N)=O)c(Nc3ccc(N4CCC(N5CCN(C)CC5)CC4)cc3)nc2NC2CCOCC2)cc1 [compound 45] | + (+ indicates an inhibition less than or equal to 20%)
24 | CN1CCN(C2CCN(c3ccc(Nc4nc(NC5CCOCC5)c(-c5ccc(S(C)(=O)=O)cc5)nc4C(N)=O)cc3)CC2)CC1 [compound 46] | + (+ indicates an inhibition less than or equal to 20%)
25 | CN1CCN(C2CCN(c3ccc(Nc4nc(NC5CCOCC5)c(-c5cccc(C#N)c5)nc4C(N)=O)cc3)CC2)CC1 [compound 47] | + (+ indicates an inhibition less than or equal to 20%)
26 | CN1CCN(C2CCN(c3ccc(Nc4nc(NC5CCOCC5)c(-c5ccn(C)n5)nc4C(N)=O)cc3)CC2)CC1 [compound 49] | + (+ indicates an inhibition less than or equal to 20%)
27 | CN1CCN(C2CCN(c3ccc(Nc4nc(NC5CCOCC5)c(-c5ccnn5C)nc4C(N)=O)cc3)CC2)CC1 [compound 50] | + (+ indicates an inhibition less than or equal to 20%)
28 | COc1cccc(-c2nc(C(N)=O)c(Nc3ccc(N4CCC(N5CCN(C)CC5)CC4)cc3)nc2NC2CCOCC2)c1 [compound 51] | + (+ indicates an inhibition less than or equal to 20%)
29 | CN1CCN(C2CCN(c3ccc(Nc4nc(NC5CCOCC5)c(-c5ccc(C#N)cc5)nc4C(N)=O)cc3)CC2)CC1 [compound 53] | + (+ indicates an inhibition less than or equal to 20%)
30 | Cc1cnccc1-c1nc(C(N)=O)c(Nc2ccc(N3CCC(N4CCN(C)CC4)CC3)cc2)nc1NC1CCOCC1 [compound 56] | + (+ indicates an inhibition less than or equal to 20%)
31 | CN1CCN(C2CCN(c3ccc(Nc4nc(NC5CCOCC5)c(-c5cccc(Cl)c5)nc4C(N)=O)cc3)CC2)CC1 [compound 61] | ++ (++ indicates an inhibition from 20% to 50%)
32 | CN1CCN(C2CCN(c3ccc(Nc4nc(NC5CCOCC5)c(-c5ccccc5F)nc4C(N)=O)cc3)CC2)CC1 [compound 62] | + (+ indicates an inhibition less than or equal to 20%)
33 | CN1CCN(C2CCN(c3ccc(Nc4nc(NC5CCOCC5)c(-c5ccccc5Cl)nc4C(N)=O)cc3)CC2)CC1 [compound 63] | + (+ indicates an inhibition less than or equal to 20%)
34 | CN1CCN(C2CCN(c3ccc(Nc4nc(NC5CCOCC5)c(-c5ccc(F)cc5)nc4C(N)=O)cc3)CC2)CC1 [compound 64] | + (+ indicates an inhibition less than or equal to 20%)
35 | CN1CCN(C2CCN(c3ccc(Nc4nc(NC5CCOCC5)c(-c5ccc(Cl)cc5)nc4C(N)=O)cc3)CC2)CC1 [compound 65] | ++ (++ indicates an inhibition from 20% to 50%)
36 | CN1CCN(C2CCN(c3ccc(Nc4nc(N[C@@H]5CCOC5)c(-c5ccccc5)nc4C(N)=O)cc3)CC2)CC1 [compound 66] | + (+ indicates an inhibition less than or equal to 20%)
37 | COc1cc(-c2nc(C(N)=O)c(Nc3ccc(N4CCC(N5CCN(C)CC5)CC4)cc3)nc2NC2CCOCC2)ccn1 [compound 67] | + (+ indicates an inhibition less than or equal to 20%)
38 | CN1CCN(C2CCN(c3ccc(Nc4nc(NC5CCOCC5)c(C5=CCNC5)nc4C(N)=O)cc3)CC2)CC1 [compound 68] | + (+ indicates an inhibition less than or equal to 20%)
39 | CN1CCN(C2CCN(c3ccc(Nc4nc(N[C@H]5CCOC5)c(-c5ccccc5)nc4C(N)=O)cc3)CC2)CC1 [compound 70] | + (+ indicates an inhibition less than or equal to 20%)
40 | CN1CCN(C2CCN(c3ccc(Nc4nc(NC5CCOCC5)c(-c5ccccc5CO)nc4C(N)=O)cc3)CC2)CC1 [compound 71] | + (+ indicates an inhibition less than or equal to 20%)
